Measurements reported in US10023615B2, “Efficient transport into white blood cells” (priority 2008, dated 2018).
Entries after “also recorded” stand apart in the source; their conditions may differ. Ends that are not written are not given here.

Legend:
[1] = Tissue distribution of C14 radiolabeled D-TAT-tagged peptides; assay type: in vivo, mouse; conditions: 1 mg/kg s.c., i.v., i.p.; 72 hours after injection
Experimental: Mice were treated via three different routes of administration (s.c., i.v., i.p.) with radiolabeled peptides with C^14 (1 mg/kg). Animals were sacrificed 72 hours after injection and processed for immunoradiography. […] This illustrates that the transporter D-TAT is responsible for the tissue distribution.

liver, Kupffer cells = assay: Immunostaining against XG-102 in the liver after i.v. injection; assay type: in vivo, rat; conditions: 1 mg/kg i.v., 24 hours
Excerpt: Revelation was done using DAB substrate.

[2] = system: bleomycin induced lung inflammation; assay: Bleomycin (BLM) induced acute lung inflammation; assay type: in vivo, C57BL/6 mice; conditions: for cell recruitment in bronchoalveolar lavage space: single dose, 1 day
Excerpt: In order to determine the activity of the exemplary all-D retro-inverso IB(s) peptide XG-102 (SEQ ID NO: 233) in the treatment of Chronic Obstructive Pulmonary Disease (COPD) XG-102 (SEQ ID NO: 233) is used in an animal model of Bleomycin induced acute lung inflammation and fibrosis. The protocol of bleomycin induced inflammation and fibrosis has been described before in the literature. The aim of the Experiment was to investigate the effect of XG-102 (SEQ ID NO: 233) by subcutaneous (s.c.) route on neutrophil recruitment in broncho alveolar lavage (BAL) and lung in bleomycin induced inflammation and fibrosis: • at 1 day after a single bleomycin administration (10 mg/kg) • and at day 10 with the development of fibrosis
1) Method and Experimental Approach • The test compound XG-102 (SEQ ID NO: 233) at two doses and vehicle control were given s.c. with a single intranasal administration of bleomycin and mice were analyzed after 1 and 10 days. The animals used in the model were 10 C57BL/6 mice (8 weeks old) per group. The experimental groups included vehicle, 0.001 mg/kg XG-102 (SEQ ID NO: 233) and 0.1 mg/kg XG-102 (SEQ ID NO: 233), and the treatment consisted of repeated sub-cutaneous administration of XG-102 (SEQ ID NO: 233), prior to bleomycin administration then every 3 days. Acute lung inflammation at 24 h was monitored by BAL lavage, cytology, cell counts, and lung myeloperoxidase activity. The effect of the compound was compared with vehicle controls. Lung fibrosis was assessed histologically using hematoxylin and eosin staining at day 10 after the single dose of bleomycin.
1.1) Bleomycin Administration • Bleomycin sulfate in saline (10 mg/kg body weight) from Bellon Laboratories (Montrouge, France) or saline were given through the airways by nasal instillation in a volume of 40 μL under light ketamine-xylasine anesthesia. The groups for Bleomycin administration for both bleomycin induced inflammation and fibrosis included: Vehicle, 0.001 mg/kg XG-102 (SEQ ID NO: 233) and 0.1 mg/kg XG-102 (SEQ ID NO: 233). The route for bleomycin induced inflammation was subcutaneous (s.c.) route, and administration occurred as a single dose. The route for bleomycin induced fibrosis was subcutaneous (s.c.) route, and administration occurred 3 times in 10 days.
1.2) Bronchoalveolar Lavage Fluid (BALE) • After incision of the trachea, a plastic cannula was inserted and airspaces were washed using 0.3 ml of PBS solution, heated to 37° C. The samples collected were dispatched in 2 fractions: the first one (1 ml corresponding to the 2 first lavages) was used for mediator measurement and the second one for the cell determination (4 ml). The first fraction was centrifuged (600 g for 10 min) and supernatant was fractionated and kept at −80° C. until mediator determination. The cell pellet was then resuspended in 0.4 ml sterile NaCl, 0,9%, and pooled with the second fraction and was used for cell counts.
1.3) Lung Homogenization • After BAL the whole lung was removed and placed inside a microtube (Lysing matrix D, Q Bio Gene, Illkrich, France) with 1 ml of PBS, total lung tissue extract was prepared using a Fastprep® system (FP120, Q Bio Gene, Illkrich, France), the extract was then centrifuged and the supernatant stored at −80° C. before mediator measurement and collagen assay with Sircol Collagen Assay (France Biochem Division, France).
1.4) Cell Count and Determination • Total cell count was determined in BAL fluid using a Malassez hemocytometer. Differential cell counts were performed on cytospin preparations (Cytospin 3, Thermo Shandon) after staining with MGG Diff-quick (Dade Behring AG). Differential cell counts were made on 200 cells using standard morphological criteria.
1.5) TNF Measurement • TNF level in BALF was determined using ELISA assay kits (Mouse DuoSet, R&D system, Minneapolis, USA) according to manufacturer's instructions. Results are reported as pg/ml. […]

db/db mice = db/db mice model of type 2 diabetes, chronic treatment; assay type: in vivo, mouse; conditions: 10 mg/kg

Substance: dqsrpvqpflnIttprkprpprrrqrrkkrg (DQSRPVQPFLNLTTPRKPRPPRRRQRRKKRG; not fully specified (some residues); printed as dqsrpvqpflnIttprkprpprrrqrrkkrg) [XG-102]
- tissue distribution (accumulation) [1]: in the liver, spleen, and bone marrow predominantly
- accumulation in liver (liver, Kupffer cells): pronounced accumulation of XG-102 in the liver, and especially, in the Kupffer cells
- cell recruitment in bronchoalveolar lavage space ([2]; 0.001 mg/kg s.c.): has no effect on neutrophil recruitment or other cell types into the bronchoalveolar space
- cell recruitment in bronchoalveolar lavage space ([2]; 0.1 mg/kg s.c.): reduces significantly the neutrophil recruitment and the number of total cells recruited; also recorded: decreases the neutrophil and total cell recruitment into the bronchoalveolar space
- MPO levels in the lung ([2]; MPO not significantly induced after bleomycin): no effect on MPO levels in the lung; also recorded: no effect on the MPO levels in the lung
- TNF level in BALF ([2]; TNF levels very low after BLM): a trend to reduction of the TNF level in BALF; also recorded: induces a trend to decrease the TNF level
- Bleomycin-induced inflammation (conclusion) ([2]; mouse, in vivo): reduces the Bleomycin-induced inflammation
- histology: inflammatory cell accumulation ([2]; peribronchial space): a decrease of the inflammatory cell accumulation in the peribronchial space
- plasma levels of insulin, MCP-1, IL-6, tPAI-1, TNF (db/db mice; day 57, 77 and 108): no significant effects
- plasma resistin (db/db mice; day 77 and 108): significantly higher
- 24 hour food and water intake, urine and faeces production (metabolic cages) (db/db mice; study day 68): no significant effects
